According to patent publication US20140309171A1, “MARKER FOR BLOOD COAGULATION” (Universite Catholique De Louvain, priority 2011, published 2014):
Entries after “also recorded” stand apart in the source; their conditions may differ.

Tests used:
Type in all cases: cell-based
[1] = system: AMPK Thr172 phosphorylation in human platelets; experiment: Western blot of AMPK Thr172 phosphorylation in human platelets; conditions: 10 μM STO-609, thrombin-treated human platelets (not shown)
Description: Washed human platelets (used in in vitro studies). Platelets were obtained from adult healthy volunteers in accordance with the Ethics Commission of our institution (Commission d'Ethique Biomédicale Hospitalo-Facultaire, Université catholique de Louvain). Whole blood was collected with butterfly needle 21G into Sodium Citrate 1:10 solution (S-monovette). Platelet-rich plasma (PRP) was obtained by 15 min centrifugation at 330 g. The platelets pellet was then washed in Tyrode modified buffer (135 mM NaCl, 12 mM NaHCO3, 1 mM Sodium Citrate, 2.9 mM KCl, 0.3 mM Na2HPO4, 1 mM MgCl2, 5 mM D-glucose, 10 mM Hepes, 0.35% bovine serum albumin (BSA), pH 7.4 at 37° C.) and resuspended to a density of 2.5 10^5 platelets/μl for the measurement of intracellular Ca^2+ or platelet aggregation. For Western Blot analysis, PRP with eptifibatide 4 μg/ml (Integriline, GlaxoSmithKline) and ectonucleotidase apyrase (grade I) 0.5 U/ml was layered over a density barrier of iodixanol (Optiprep®) that allowed the erythrocytes and leucocytes to pellet during centrifugation at 350 g for 15 min. […] Bound antibodies were detected by enhanced chemiluminescence (Thermofisher). […] Band intensities were quantified by scanning and processing image intensities with the program ImageJ (1.33 for Mac OS X). The quantification of immunoblots presented in results was obtained after normalization using the internal loading control.

[2] = system: activated conformation of αIIbβ3 on human platelets; experiment: Flow cytometry, PAC-1 binding; conditions: 0.025 U/ml thrombin, 10 μM STO-609
Description: Flow cytometric analysis was performed on a FACScan (Becton Dickinson). Washed human platelets (2·10^5 platelets/μl) were pre-incubated with DMSO/STO-609 for 2 min and then treated with or without thrombin (0.025 U/ml) in the presence of excessive amounts of FITC-conjugated monoclonal antibody (anti-CD62P (BD Biosciences) or PAC-1 (BD Biosciences)) at room temperature. The samples were then fixed at 4° C. for 30 min with 2% paraformaldehyde. The levels of P-selectin expression and PAC1 binding were expressed as the percentages of cells positive for anti-CD62P and PAC-1, respectively. The negative cut-off for each antibody was set using resting platelets that gave less than 5% of cells positive for binding of anti-CD62P or PAC-1. In addition to aggregation measurements, we examined by flow cytometry STO-609 effects on PAC-1 binding, an antibody specific for the activated conformation of αIIbβ3. Platelets were activated by 0.025 U/ml thrombin in the absence or presence of 10 μM STO-609.

[3] = system: cofilin Ser3 phosphorylation; experiment: Western blot of cofilin Ser3 phosphorylation in human platelets; conditions: 0.1 U/ml thrombin, 10 μM STO-609, 10 min after thrombin exposure
Description: (§1) Washed human platelets (used in in vitro studies). Platelets were obtained from adult healthy volunteers in accordance with the Ethics Commission of our institution (Commission d'Ethique Biomédicale Hospitalo-Facultaire, Université catholique de Louvain). Whole blood was collected with butterfly needle 21G into Sodium Citrate 1:10 solution (S-monovette). Platelet-rich plasma (PRP) was obtained by 15 min centrifugation at 330 g. The platelets pellet was then washed in Tyrode modified buffer (135 mM NaCl, 12 mM NaHCO3, 1 mM Sodium Citrate, 2.9 mM KCl, 0.3 mM Na2HPO4, 1 mM MgCl2, 5 mM D-glucose, 10 mM Hepes, 0.35% bovine serum albumin (BSA), pH 7.4 at 37° C.) and resuspended to a density of 2.5 10^5 platelets/μl for the measurement of intracellular Ca^2+ or platelet aggregation. […]
(§2) Proteins were separated as described (Miranda et al. 2010. J Clin Invest 103(6): 879-887). […] Bound antibodies were detected by enhanced chemiluminescence (Thermofisher). […] Band intensities were quantified by scanning and processing image intensities with the program ImageJ (1.33 for Mac OS X). The quantification of immunoblots presented in results was obtained after normalization using the internal loading control.

[4] = system: VASP Thr 278 phosphorylation; experiment: Western blot of VASP Thr278 phosphorylation in human platelets; conditions: 0.1 U/ml thrombin, pre-incubation with STO-609
Description: as §1, §2

O=C(O)c1ccc2c3c1cccc3c(=O)n1c3ccccc3nc21 [STO-609]
AMPK activation, as judged by phosphorylation of AMPK Thr172 [1]: markedly reduced | PAC-1 binding in response to thrombin [2]: significantly inhibited | thrombin-induced cofilin phosphorylation, effect of pre-incubation [3]: significantly decreased; also recorded: prevents | thrombin-induced VASP phosphorylation on Thr 278, effect of pre-incubation [4]: prevents
